“And” between values parts separate entries of the source, which are not always exact repeats. Identical values can stand only once.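 Each compound was tested at five concentrations against cells in 96-well plates for 48 hours. GI50 = concentration required for 50% inhibition of growth. The concentration for full growth arrest is given as TGI.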
Tests used:
Experiment in all cases: growth of human tumour cells (NCI), 48 h
[1] = test system: TK-10 renal
[2] = test system: OVCAR-8 ovarian
[3] = test system: SK-MEL-5 melanoma
[4] = test system: MDA-MB-435
[5] = test system: MALME-3M melanoma
[6] = test system: COLO 205 colon
[7] = test system: NCI-H522 lung
[8] = test system: CCRF-CEM leukemia
[9] = test system: NCI-H226 lung
[10] = test system: EKVX NSCLC

Row | SMILES | GI50 [1] | TGI [1] | GI50 [2] | TGI [2] | GI50 [3] | TGI [3] | GI50 [4] | TGI [4] | GI50 [5] | TGI [5] | GI50 [6] | TGI [6] | GI50 [7] | TGI [7] | GI50 [8] | TGI [8] | GI50 [9] | TGI [9] | GI50 [10] | TGI [10]
1 | CC(C)C[C@H](NC(=O)[C@H](CCc1ccccc1)NC(=O)CN1CCOCC1)C(=O)N[C@@H](Cc1ccccc1)C(=O)N[C@@H](CC(C)C)C(=O)[C@@]1(C)CO1 | 0.0144 µM | 0.0934 µM | 0.0204 µM | 0.0952 µM | < 0.0136 µM | 0.0434 µM | < 0.01 µM | 0.0173 µM | 0.0527 µM | 0.586 µM | < 0.0165 µM | 0.172 µM | < 0.01 µM | 0.0239 µM | < 0.01 µM | > 100 µM | < 0.0122 µM | < 0.0175 µM | 0.0566 µM | –
2 | O=C(NCc1cccnc1)/C(=C\c1ccc(Br)cc1)S(=O)(=O)c1ccccc1 | 1.5 µM | 2.91 µM | 0.705 µM | 3.33 µM | 1.38 µM | 2.69 µM | 0.477 µM | 1.73 µM | 1.13 µM | 2.58 µM | 1.22 µM | 2.65 µM | 0.38 µM | 1.58 µM | 0.315 µM | 4.5 µM | 1.29 µM | 2.67 µM | 1.3 µM | 2.61 µM
3 | CCN1CCN(c2nc(NNC(=O)Cc3ccccc3)nc(N3CCN(C(c4ccccc4)c4ccccc4)CC3)n2)CC1 | 1.97 µM | 3.85 µM | 2.51 µM | 6.57 µM | 1.71 µM | 3.12 µM | 1.75 µM | 3.2 µM | 1.64 µM | 3.29 µM | 1.88 µM | 3.82 µM | 1.99 µM | 4.18 µM | 2.51 µM | 6.71 µM | 16.9 µM | 42.7 µM | 9.99 µM | 30 µM
4 | COc1ccc(C(=O)c2cc(OC)c(OC)c(OC)c2)cc1OC(C)=O | 59 µM | > 100 µM | 0.0451 µM | > 100 µM | 0.0325 µM | 0.311 µM | < 0.01 µM | 0.0102 µM | 35.4 µM | > 100 µM | 0.786 µM | 10.1 µM | 0.017 µM | > 100 µM | 0.0353 µM | > 100 µM | 8.71 µM | > 100 µM | 2.24 µM | > 100 µM
5 | CC[C@@]1(O)C(=O)NCc2c1cc1n(c2=O)Cc2cc3ccccc3nc2-1 | > 100 µM | > 100 µM | 2.12 µM | > 44.8 µM | 2.77 µM | 18.7 µM | 10.9 µM | > 100 µM | 83.9 µM | > 100 µM | 39.2 µM | > 100 µM | > 22.6 µM | > 100 µM | 0.253 µM | – | > 100 µM | > 100 µM | > 47.9 µM | > 100 µM
6 | COc1cc(C)c(C(=O)O[C@H]2[C@H](O[C@H]3[C@@H](O)COC(O[C@H]4C[C@H]5[C@@H]6CC=C7C[C@@H](O)CC[C@]7(C)[C@H]6CC[C@]5(C)[C@H]4[C@H](C)C(=O)CCC(C)C)[C@@H]3OC(C)=O)OC[C@@H](O)[C@@H]2O)c(C)c1 (stereo partly specified) | 0.704 µM | 16.6 µM | 10.3 µM | > 100 µM | < 0.01 µM | 0.0181 µM | < 0.01 µM | 0.13 µM | 0.0257 µM | 5.89 µM | 0.0307 µM | 0.382 µM | < 0.01 µM | 0.334 µM | < 0.01 µM | 0.102 µM | 0.135 µM | 12.4 µM | 1.06 µM | 15.1 µM
7 | O=C(c1ccccc1)C1C(C(=O)c2ccccc2)N1Cc1ccccc1 (stereo unspecified) | – | > 100 µM | – | > 100 µM | – | 36.7 µM | – | 68.3 µM | – | 77.3 µM | – | 58.3 µM | – | 74.6 µM | – | > 100 µM | – | > 100 µM | – | > 100 µM
8 | CCN(CC)CCN1C(=O)c2c(c(C)c3c(oc4cc(O)ccc43)c2C)C1=O | 1.93 µM | 3.62 µM | 2.11 µM | 5.72 µM | 1.56 µM | 2.92 µM | 1.57 µM | 3.08 µM | 1.56 µM | 2.97 µM | 2.18 µM | 5.77 µM | 2.11 µM | 4.71 µM | 2.23 µM | 6.25 µM | 2.06 µM | 4.38 µM | 1.69 µM | 3.3 µM
9 | C/C(=C\c1ccc(Cl)cc1)C(C)(C)C(=O)O | – | > 100 µM | – | > 100 µM | – | > 100 µM | – | > 100 µM | – | > 100 µM | – | > 100 µM | – | > 100 µM | – | > 100 µM | – | > 100 µM | – | > 100 µM
10 | CN(C)C[C@H]1CC[C@@H](CN(C)C)C1=O | – | 15 µM | – | 17.1 µM | – | 23.6 µM | – | 19.6 µM | – | 7.25 µM | 0.759 µM | 11.3 µM | 0.269 µM | 0.686 µM and 1.18 µM | 1.23 µM | 5.02 µM | – | 32.3 µM | – | 24.3 µM
11 | CC(=O)OCC1OC(OC2C(COC(C)=O)OC(OCCC[S-])C(OC(C)=O)C2OC(C)=O)C(OC(C)=O)C(OC(C)=O)C1OC(C)=O.[Au+].c1ccc(CN2[CH-]N(Cc3ccccc3)C(c3ccccc3)=C2c2ccccc2)cc1 (stereo unspecified) | 3.57 µM | 14.8 µM | 3.75 µM | > 100 µM | 1.97 µM | 4.41 µM | 3.18 µM | 13.6 µM | 2.19 µM | 6.56 µM | 2.68 µM | 7.61 µM | 1.72 µM | 4.55 µM | 3.39 µM | 21.5 µM | 4.68 µM | 33 µM | 3.15 µM | 15.9 µM
12 | O=C(O)c1c(O)c2cc(Br)ccc2oc1=O | – | > 100 µM | – | > 100 µM | – | > 100 µM | – | > 100 µM | – | > 100 µM | – | > 100 µM | – | > 100 µM | – | > 100 µM | – | > 100 µM | – | > 100 µM
13 | COc1ccc(-c2ccc3c(NC(=O)C4CC4)n[nH]c3n2)cc1 | > 25 µM | > 25 µM | 11.7 µM | > 25 µM | > 25 µM | > 25 µM | > 25 µM | > 25 µM | > 25 µM | > 25 µM | > 25 µM | > 25 µM | > 22.9 µM | > 25 µM | > 25 µM | > 25 µM | > 25 µM | > 25 µM | > 25 µM | > 25 µM

Source: PubChem BioAssay (NCI)
